According to ChEMBL document CHEMBL1201862, “PubChem BioAssay data set” (2004):
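These data come from cells grown in 96-well plates and exposed to compound for 48 hours at five concentrations. GI50: concentration for 50% inhibition of growth.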 Calls of active or inactive are those of the source. Cut-off read from the data, not from the text of the source: active = GI50 up to about 1.1 µM and inactive = higher.

Columns and labels:
Assay in all cases: NCI-60 cell line screen, 48 h
[1] = system: RXF 393
[2] = system: DU-145
[3] = system: UACC-257
[4] = system: OVCAR-3
[5] = system: A549
[6] = system: Malme-3M
[7] = system: 786-0
[8] = system: NCI-H522
[9] = system: NCI-H460
[10] = system: T47D
[11] = system: IGROV-1
[12] = system: MOLT-4
[13] = system: ACHN
[14] = system: UO-31
[15] = system: EKVX
[16] = system: SF-295
[17] = system: SR
[18] = system: TK-10
[19] = system: SK-OV-3
[20] = system: U-251
[21] = system: Hs-578T
[22] = system: HCC 2998
[23] = system: HOP-62
[24] = system: KM12
[25] = system: SNB-75
[26] = system: BT-549
[27] = system: SN12C
[28] = system: LOX IMVI
[29] = system: K562
[30] = system: UACC-62
[31] = system: RPMI-8226
[32] = system: NCI-H226
[33] = system: CCRF-CEM
[34] = system: NCI-H23
[35] = system: HCT-116
[36] = system: NCI/ADR-RES
[37] = system: SW-620
[38] = system: COLO 205
[39] = system: MDA-MB-231
[40] = system: SF-268
[41] = system: A498
[42] = system: HOP-92
[43] = system: SF-539
[44] = system: MDA-MB-435
[45] = system: OVCAR-8
[46] = system: HT-29
[47] = system: SNB-19
[48] = system: OVCAR-4
[49] = system: SK-MEL-5
[50] = system: M14
[51] = system: MDA-N
[52] = system: CAKI-1
[53] = system: SK-MEL-2
[54] = system: PC-3
[55] = system: HCT-15
[56] = system: OVCAR-5
[57] = system: SK-MEL-28
[58] = system: MCF7

CC1=NN(c2nc(N)nc(/C(C#N)=C\c3ccc([N+](=O)[O-])s3)n2)C(C)(C)C1
GI50 [1]: 0.236 µM (active)
GI50 [2]: 0.24 µM (active)
GI50 [3]: 0.211 µM (active)
GI50 [4]: 0.124 µM (active)
GI50 [5]: 0.887 µM (active)
GI50 [6]: 0.764 µM (active)
GI50 [7]: 0.16 µM (active)
GI50 [8]: 0.101 µM (active)
GI50 [9]: 0.209 µM (active)
GI50 [10]: 0.0743 µM (active)
GI50 [11]: 0.284 µM (active)
GI50 [12]: 0.138 µM (active)
GI50 [13]: 0.261 µM (active)
GI50 [14]: 0.167 µM (active)
GI50 [15]: 0.817 µM (active)
GI50 [16]: 2.96 µM (inactive)
GI50 [17]: 0.018 µM (active)
GI50 [18]: 0.507 µM (active)
GI50 [19]: 8.99 µM (inactive)
GI50 [20]: 0.104 µM (active)
GI50 [21]: 0.783 µM (active)
GI50 [22]: 1.41 µM (inactive)
GI50 [23]: 0.316 µM (active)
GI50 [24]: 0.316 µM (active)
GI50 [25]: 0.764 µM (active)
GI50 [26]: 0.701 µM (active)
GI50 [27]: 0.363 µM (active)
GI50 [28]: 0.157 µM (active)
GI50 [29]: < 0.0178 µM (active)
GI50 [30]: 0.861 µM (active)
GI50 [31]: 0.0218 µM (active)
GI50 [32]: 2.39 µM (inactive)
GI50 [33]: 0.0175 µM (active)
GI50 [34]: 0.76 µM (active)
GI50 [35]: 0.244 µM (active)
GI50 [36]: 1.18 µM (inactive)
GI50 [37]: 0.0736 µM (active)
GI50 [38]: 0.339 µM (active)
GI50 [39]: 0.22 µM (active)
GI50 [40]: 0.408 µM (active)
GI50 [41]: 7.78 µM (inactive)
GI50 [42]: 0.302 µM (active)
GI50 [43]: 0.169 µM (active)
GI50 [44]: 0.233 µM (active)
GI50 [45]: 0.113 µM (active)
GI50 [46]: 0.265 µM (active)
GI50 [47]: 1.66 µM (inactive)
GI50 [48]: 2.55 µM (inactive)
GI50 [49]: 0.625 µM (active)
GI50 [50]: 0.298 µM (active)
GI50 [51]: 0.34 µM (active)
GI50 [52]: 1.16 µM (inactive)
GI50 [53]: 0.375 µM (active)
GI50 [54]: 0.165 µM (active)
GI50 [55]: 0.108 µM
GI50 [56]: 3.46 µM (inactive)
GI50 [57]: 0.383 µM (active)
GI50 [58]: 0.142 µM (active)

O=[As](O)(O)c1ccc2nc3cc([As](=O)(O)O)ccc3nc2c1
GI50 [1]: > 100 µM (inactive)
GI50 [2]: > 100 µM (inactive)
GI50 [3]: > 100 µM (inactive)
GI50 [4]: > 100 µM (inactive)
GI50 [5]: > 100 µM (inactive)
GI50 [6]: > 100 µM (inactive)
GI50 [7]: > 100 µM (inactive)
GI50 [8]: > 100 µM (inactive)
GI50 [9]: > 100 µM (inactive)
GI50 [10]: > 100 µM (inactive)
GI50 [11]: > 100 µM (inactive)
GI50 [12]: > 100 µM (inactive)
GI50 [13]: > 100 µM (inactive)
GI50 [14]: > 100 µM (inactive)
GI50 [15]: > 100 µM (inactive)
GI50 [16]: > 100 µM (inactive)
GI50 [17]: > 100 µM (inactive)
GI50 [18]: > 100 µM (inactive)
GI50 [20]: > 100 µM (inactive)
GI50 [21]: > 100 µM (inactive)
GI50 [22]: > 100 µM (inactive)
GI50 [23]: > 100 µM (inactive)
GI50 [24]: > 100 µM (inactive)
GI50 [25]: > 100 µM (inactive)
GI50 [26]: > 100 µM (inactive)
GI50 [27]: > 100 µM (inactive)
GI50 [28]: > 100 µM (inactive)
GI50 [29]: > 100 µM (inactive)
GI50 [30]: > 100 µM (inactive)
GI50 [32]: > 100 µM (inactive)
GI50 [34]: > 100 µM (inactive)
GI50 [35]: > 100 µM (inactive)
GI50 [36]: > 100 µM (inactive)
GI50 [37]: > 100 µM (inactive)
GI50 [39]: > 100 µM (inactive)
GI50 [40]: > 100 µM (inactive)
GI50 [41]: > 100 µM (inactive)
GI50 [42]: > 100 µM (inactive)
GI50 [44]: > 100 µM (inactive)
GI50 [45]: > 100 µM (inactive)
GI50 [46]: > 100 µM (inactive)
GI50 [47]: > 100 µM (inactive)
GI50 [48]: > 100 µM (inactive)
GI50 [49]: > 100 µM (inactive)
GI50 [50]: > 100 µM (inactive)
GI50 [51]: > 100 µM (inactive)
GI50 [52]: > 100 µM (inactive)
GI50 [53]: > 100 µM (inactive)
GI50 [54]: > 100 µM (inactive)
GI50 [55]: > 100 µM
GI50 [56]: > 100 µM (inactive)
GI50 [57]: > 100 µM (inactive)
GI50 [58]: > 100 µM (inactive)

CCOC(=O)C1=CNC(C(=O)OCC)C1c1cccn1-c1ccc(Cl)cc1[N+](=O)[O-] (stereo unspecified)
GI50 [1]: 14.6 µM (inactive)
GI50 [2]: 29.5 µM (inactive)
GI50 [3]: 24.4 µM (inactive)
GI50 [4]: 10.6 µM (inactive)
GI50 [5]: 32.1 µM (inactive)
GI50 [7]: 19.1 µM (inactive)
GI50 [8]: 16 µM (inactive)
GI50 [9]: 15.4 µM (inactive)
GI50 [10]: 24.2 µM (inactive)
GI50 [11]: 9.4 µM (inactive)
GI50 [12]: 22.1 µM (inactive)
GI50 [13]: 30.3 µM (inactive)
GI50 [14]: 22.9 µM (inactive)
GI50 [15]: 17.9 µM (inactive)
GI50 [16]: 16.4 µM (inactive)
GI50 [17]: 25.7 µM (inactive)
GI50 [18]: 13.1 µM (inactive)
GI50 [19]: 32.7 µM (inactive)
GI50 [20]: 20.7 µM (inactive)
GI50 [21]: 15.8 µM (inactive)
GI50 [22]: 16.3 µM (inactive)
GI50 [23]: 10 µM (inactive)
GI50 [24]: 20.2 µM (inactive)
GI50 [25]: 17.4 µM (inactive)
GI50 [26]: 22.8 µM (inactive)
GI50 [27]: 18.2 µM (inactive)
GI50 [28]: 15.9 µM (inactive)
GI50 [29]: 23.8 µM (inactive)
GI50 [30]: 15.7 µM (inactive)
GI50 [32]: 20.1 µM (inactive)
GI50 [33]: 24.5 µM (inactive)
GI50 [34]: 36.6 µM (inactive)
GI50 [35]: 17.1 µM (inactive)
GI50 [36]: 18.5 µM (inactive)
GI50 [37]: 27.9 µM (inactive)
GI50 [38]: 31.2 µM (inactive)
GI50 [39]: 10 µM (inactive)
GI50 [40]: 18.2 µM (inactive)
GI50 [41]: 50.7 µM (inactive)
GI50 [42]: 17.6 µM (inactive)
GI50 [43]: 16.6 µM (inactive)
GI50 [44]: 21.5 µM (inactive)
GI50 [45]: 25.8 µM (inactive)
GI50 [46]: 16.1 µM (inactive)
GI50 [48]: 31.3 µM (inactive)
GI50 [49]: 16.6 µM (inactive)
GI50 [50]: 15.3 µM (inactive)
GI50 [51]: 22 µM (inactive)
GI50 [52]: 20 µM (inactive)
GI50 [53]: 15.4 µM (inactive)
GI50 [54]: 20.7 µM (inactive)
GI50 [55]: 21.5 µM
GI50 [56]: 12.5 µM (inactive)
GI50 [57]: 26.2 µM (inactive)
GI50 [58]: 20.6 µM (inactive)
